Consider one molecule from US12186319B2, “Crosslinked polymer nanoparticles for targeted cellular uptake and therapeutics, and compositions and methods thereof” (University of Massachusetts, priority 2017, dated 2025).

The series can be described thus: Encapsulation of drug within HA-decorated nanoparticles (FIG. 1, visual). The class given is physicochemical. The following applies: FIG. 1B/1C, colour of solution. Here is the method: The dye is however stably encapsulated in crosslinked HA-decorated nanoparticles (right).
MTX and MMTX encapsulation: A suspension of modified HA (1 mg/mL), crosslinker (2 mg/mL) and Irgacure 2959 (0.5 mg/mL) in water (1 mL) was stirred at RT for 30 mins and purged with argon for 10 mins. To this solution, MTX (100 μL, 6 mg/mL) or MMTX (100 μL, 6 mg/mL) or DMSO 100 μL (control) was added. The reaction mixture was exposed to UV irradiation for 10 min. Afterwards, the free drug was removed by dialyzing the solution against DI water for 48 h and filtered through a hydrophilic membrane (pore size: 0.45 μm). The resulting solution was used to estimate the size of the drug loaded PNPs using dynamic light scattering.

As for `CN(Cc1cnc2nc(N)nc(N)c2n1)c1ccc(C(=O)N[C@@H](CCC(=O)O)C(=O)O)cc1` [MTX, Methotrexate], the “encapsulation within HA-decorated nanoparticles” value is recorded as “no encapsulation is discernible”.
